Literature values, collected in patent publication US8071577B2, “Multi-phase contraceptive preparation based on a natural estrogen” (Bayer Pharma Aktiengesellschaft, priority 2004, dated 2011).

Test system: ovulation
Conditions: daily dose known from the literature

| SMILES | ovulation-inhibitory dose |
| --- | --- |
| C[C@]12CCC(=O)C=C1[C@@H]1C[C@@H]1[C@H]1[C@@H]3[C@@H]4C[C@@H]4[C@@]4(CCC(=O)O4)[C@@]3(C)CC[C@@H]12 [drospirenone] | 2.0-3.0 mg a day |
| C[C@]12CCC3=C4CCC(=O)C=C4CC[C@H]3[C@@H]1CC[C@@]2(O)CC#N [dienogest] | 1.0 mg a day |
